Laboratory results from ChEMBL document CHEMBL1250549, “N-phenyl-N'-[4-(5H-pyrrolo[3,2-d]pyrimidin-4-yloxy)phenyl]ureas as novel inhibitors of VEGFR and FGFR kinases” (Bioorg Med Chem, 2010).
In brackets after ≈: the same amount, converted by molar mass.

Assays:
[1] = molecular target: Vascular endothelial growth factor receptor 2 (Homo sapiens, UniProt P35968); assay: Inhibition of His-tagged human VEGFR2 expressed in Sf9 cells
[2] = molecular target: T1, Fibroblast growth factor receptor 1 (Homo sapiens, UniProt P11362); assay: Inhibition of His-tagged human FGFR1 expressed in Sf9 cells
Angiopoietin-1 receptor = Angiopoietin-1 receptor (Homo sapiens, UniProt Q02763); assay: Inhibition of Tie-2
[3] = Inhibition of VEGFR
[4] = Inhibition of PDGFR
[5] = molecular target: T1, Fibroblast growth factor receptor 1; assay: Inhibition of FGFR1
HUVEC [6] = assay: Antiproliferative activity against HUVEC cells assessed as inhibition of FGF-stimulated proliferation after 5 days by WST-8 assay; conditions: Homo sapiens, 120 h
[7] = Solubility of the compound at pH 6.8; format: physicochemical; conditions: buffer
HUVEC [8] = assay: Antiproliferative activity against HUVEC cells assessed as inhibition of VEGF-stimulated proliferation after 5 days by WST-8 assay; conditions: Homo sapiens, 120 h

Chain of Vascular endothelial growth factor receptor 2 (P35968 whole entry): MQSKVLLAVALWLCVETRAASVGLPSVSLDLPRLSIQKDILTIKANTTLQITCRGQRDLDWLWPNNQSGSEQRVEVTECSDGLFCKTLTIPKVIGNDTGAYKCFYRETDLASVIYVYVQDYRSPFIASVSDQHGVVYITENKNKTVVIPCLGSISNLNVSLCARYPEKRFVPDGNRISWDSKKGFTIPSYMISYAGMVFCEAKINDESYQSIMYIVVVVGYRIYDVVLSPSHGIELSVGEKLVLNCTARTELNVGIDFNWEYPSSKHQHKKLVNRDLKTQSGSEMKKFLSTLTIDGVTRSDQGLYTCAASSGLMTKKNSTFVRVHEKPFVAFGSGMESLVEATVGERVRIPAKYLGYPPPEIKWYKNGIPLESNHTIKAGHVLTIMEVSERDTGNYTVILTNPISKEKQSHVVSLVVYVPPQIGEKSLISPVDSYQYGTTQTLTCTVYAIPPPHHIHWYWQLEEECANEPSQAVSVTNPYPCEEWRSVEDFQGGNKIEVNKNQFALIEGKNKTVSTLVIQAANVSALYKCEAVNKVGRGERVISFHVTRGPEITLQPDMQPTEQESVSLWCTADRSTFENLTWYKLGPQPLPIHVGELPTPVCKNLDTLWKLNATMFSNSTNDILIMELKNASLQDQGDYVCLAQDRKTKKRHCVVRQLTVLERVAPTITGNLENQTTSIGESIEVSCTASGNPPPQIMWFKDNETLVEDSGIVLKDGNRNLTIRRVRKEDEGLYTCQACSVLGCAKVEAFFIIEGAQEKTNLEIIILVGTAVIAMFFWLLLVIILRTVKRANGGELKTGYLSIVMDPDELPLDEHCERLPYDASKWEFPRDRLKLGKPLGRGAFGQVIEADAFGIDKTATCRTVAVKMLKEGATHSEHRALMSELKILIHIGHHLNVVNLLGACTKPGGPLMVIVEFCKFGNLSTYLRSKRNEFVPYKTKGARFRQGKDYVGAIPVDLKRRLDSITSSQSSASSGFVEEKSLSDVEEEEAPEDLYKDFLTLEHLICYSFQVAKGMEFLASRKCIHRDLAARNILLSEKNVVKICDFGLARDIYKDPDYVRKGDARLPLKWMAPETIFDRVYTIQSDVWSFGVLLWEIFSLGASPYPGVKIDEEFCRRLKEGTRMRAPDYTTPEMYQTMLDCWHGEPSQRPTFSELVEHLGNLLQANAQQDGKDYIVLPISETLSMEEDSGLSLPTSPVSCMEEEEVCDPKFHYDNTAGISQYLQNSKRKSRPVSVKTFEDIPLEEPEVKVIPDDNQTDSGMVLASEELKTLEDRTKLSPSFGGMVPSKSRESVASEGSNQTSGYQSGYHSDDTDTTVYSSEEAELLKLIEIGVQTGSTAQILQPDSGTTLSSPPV
T1 sequence (P11362 whole entry): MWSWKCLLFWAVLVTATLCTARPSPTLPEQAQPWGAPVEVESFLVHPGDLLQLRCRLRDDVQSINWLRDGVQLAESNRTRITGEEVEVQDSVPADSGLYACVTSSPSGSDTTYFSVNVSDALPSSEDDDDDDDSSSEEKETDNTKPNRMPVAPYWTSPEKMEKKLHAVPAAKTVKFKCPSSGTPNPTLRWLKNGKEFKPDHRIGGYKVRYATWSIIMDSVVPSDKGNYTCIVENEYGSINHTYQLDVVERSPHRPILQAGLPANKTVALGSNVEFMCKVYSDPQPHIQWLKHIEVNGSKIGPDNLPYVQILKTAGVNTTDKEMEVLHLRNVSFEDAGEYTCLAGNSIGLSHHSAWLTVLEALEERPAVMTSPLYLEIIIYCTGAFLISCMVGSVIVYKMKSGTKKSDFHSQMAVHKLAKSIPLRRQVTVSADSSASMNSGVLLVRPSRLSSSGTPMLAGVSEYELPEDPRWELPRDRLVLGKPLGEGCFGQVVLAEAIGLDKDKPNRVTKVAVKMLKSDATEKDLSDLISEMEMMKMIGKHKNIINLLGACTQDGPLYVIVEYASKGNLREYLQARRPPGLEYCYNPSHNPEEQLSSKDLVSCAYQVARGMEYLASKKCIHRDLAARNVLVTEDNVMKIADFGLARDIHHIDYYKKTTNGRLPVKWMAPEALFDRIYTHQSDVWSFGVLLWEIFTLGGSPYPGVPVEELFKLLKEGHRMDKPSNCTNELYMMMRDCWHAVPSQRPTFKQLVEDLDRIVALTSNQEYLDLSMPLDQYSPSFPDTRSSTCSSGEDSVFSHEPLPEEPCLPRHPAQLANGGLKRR
Chain of Angiopoietin-1 receptor (Q02763 whole entry): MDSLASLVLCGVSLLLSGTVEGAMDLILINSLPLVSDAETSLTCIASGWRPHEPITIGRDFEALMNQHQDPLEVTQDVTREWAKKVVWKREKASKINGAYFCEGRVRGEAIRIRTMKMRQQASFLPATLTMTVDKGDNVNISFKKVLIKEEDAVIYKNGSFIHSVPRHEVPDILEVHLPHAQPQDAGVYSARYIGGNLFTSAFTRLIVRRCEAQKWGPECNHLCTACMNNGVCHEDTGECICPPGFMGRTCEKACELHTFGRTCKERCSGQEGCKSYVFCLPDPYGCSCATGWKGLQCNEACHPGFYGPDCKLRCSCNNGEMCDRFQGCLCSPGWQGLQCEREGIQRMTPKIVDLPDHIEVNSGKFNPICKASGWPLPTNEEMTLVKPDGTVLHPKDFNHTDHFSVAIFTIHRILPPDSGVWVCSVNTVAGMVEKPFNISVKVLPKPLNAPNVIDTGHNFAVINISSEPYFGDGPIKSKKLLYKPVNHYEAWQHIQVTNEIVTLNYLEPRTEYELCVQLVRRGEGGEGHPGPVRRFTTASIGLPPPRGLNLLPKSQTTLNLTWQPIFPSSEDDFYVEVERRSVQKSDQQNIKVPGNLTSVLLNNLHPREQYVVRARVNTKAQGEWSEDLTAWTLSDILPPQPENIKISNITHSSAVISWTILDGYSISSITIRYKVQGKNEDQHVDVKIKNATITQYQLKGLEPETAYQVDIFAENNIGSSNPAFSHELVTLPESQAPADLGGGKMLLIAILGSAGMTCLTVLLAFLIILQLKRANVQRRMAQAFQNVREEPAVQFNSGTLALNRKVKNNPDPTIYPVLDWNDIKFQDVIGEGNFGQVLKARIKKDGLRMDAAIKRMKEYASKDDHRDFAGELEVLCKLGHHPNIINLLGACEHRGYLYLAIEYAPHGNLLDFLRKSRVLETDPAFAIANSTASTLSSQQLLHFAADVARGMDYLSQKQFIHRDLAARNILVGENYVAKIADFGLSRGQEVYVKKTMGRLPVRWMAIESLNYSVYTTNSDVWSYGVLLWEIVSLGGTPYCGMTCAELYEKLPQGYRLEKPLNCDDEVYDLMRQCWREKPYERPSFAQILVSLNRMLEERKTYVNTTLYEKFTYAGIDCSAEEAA

SMILES | IC50 [1] [nM] | other results
COCc1cc2ncnc(Oc3ccc(NC(=O)Nc4cccc(C(F)(F)F)c4)c(Cl)c3)c2n1C | 14 | –
Cn1c(C(C)(C)O)cc2ncnc(Oc3ccc(NC(=O)Nc4cccc(C(F)(F)F)c4)c(Cl)c3)c21 | 18 | –
Cn1ccc2ncnc(Oc3ccc(NC(=O)Nc4cccc(C(F)(F)F)c4)c(F)c3)c21 | – | IC50 [2]: > 10 µM; IC50 (Angiopoietin-1 receptor): < 100 nM; IC50 [3]: < 100 nM; IC50 [4]: < 100 nM; IC50 [5]: > 10 µM
Cn1ccc2ncnc(Oc3ccc(NC(=O)Nc4ccccn4)c(Cl)c3)c21 | 210 | IC50 [2]: > 10 µM
Cn1ccc2ncnc(Oc3ccc(NC(=O)Nc4cccnc4)c(Cl)c3)c21 | 230 | IC50 [2]: > 10 µM
Cn1ccc2ncnc(Oc3ccc(NC(=O)Nc4cccc(C(F)(F)F)c4)c(Cl)c3)c21 | – | IC50 (HUVEC [6]): 230 nM; solubility [7]: 0.09 µg/mL (≈ 0.195 µM)
Cn1ccc2ncnc(Oc3ccc(NC(=O)Nc4ccncc4)c(Cl)c3)c21 | 650 | IC50 [2]: > 10 µM
Cn1nc(C(C)(C)C)cc1NC(=O)Nc1ccc(Oc2ncnc3ccn(C)c23)cc1Cl | 19 | –
Cn1ccc2ncnc(Oc3ccc(NC(=O)Nc4ccc(N5CCOCC5)c(C(F)(F)F)c4)c(Cl)c3)c21 | 61 | –
Cn1ccc2ncnc(Oc3ccc(NC(=O)Nc4ccc(CN5CCOCC5)c(C(F)(F)F)c4)c(Cl)c3)c21 | 19 | –
CN1CCC(Oc2ccc(NC(=O)Nc3ccc(Oc4ncnc5ccn(C)c45)cc3Cl)cc2C(F)(F)F)CC1 | 12 | –
COc1cc(NC(=O)Nc2ccc(Oc3ncnc4ccn(C)c34)cc2Cl)cc(C(F)(F)F)c1 | 20 | –
Cn1ccc2ncnc(Oc3ccc(NC(=O)Nc4cc(N5CCOCC5)cc(C(F)(F)F)c4)c(Cl)c3)c21 | 60 | –
Cn1ccc2ncnc(Oc3ccc(NC(=O)Nc4cc(CN5CCOCC5)cc(C(F)(F)F)c4)c(Cl)c3)c21 | 23 | –
CN1CCN(Cc2cc(NC(=O)Nc3ccc(Oc4ncnc5ccn(C)c45)cc3Cl)cc(C(F)(F)F)c2)CC1 | 11 | –
Cn1c(CO)cc2ncnc(Oc3ccc(NC(=O)Nc4cccc(C(F)(F)F)c4)c(Cl)c3)c21 | 9.7 | –

Further lines, with some results ahead:

IC50 [1] [nM] | SMILES | other results
8.9 | Cn1ccc2ncnc(Oc3ccc(NC(=O)Nc4cc(C(C)(C)C)on4)c(Cl)c3)c21 | –
2.7 | O=C(Nc1cccc(C(F)(F)F)c1)Nc1ccc(Oc2ncnc3ccn(CCOCCO)c23)cc1Cl | –
9 | COCCn1ccc2ncnc(Oc3ccc(NC(=O)Nc4cccc(C(F)(F)F)c4)c(Cl)c3)c21 | –
4 | O=C(Nc1cccc(C(F)(F)F)c1)Nc1ccc(Oc2ncnc3ccn(CCO)c23)cc1Cl | –
2.7 | Cn1ccc2ncnc(Oc3ccc(NC(=O)Nc4cc(C(F)(F)F)ccn4)c(Cl)c3)c21 | –
2.9 | Cn1ccc2ncnc(Oc3ccc(NC(=O)Nc4cncc(C(F)(F)F)c4)c(Cl)c3)c21 | –
3.8 | Cn1ccc2ncnc(Oc3ccc(NC(=O)Nc4ccnc(C(F)(F)F)c4)c(Cl)c3)c21 | –
4 | Cn1ccc2ncnc(Oc3ccc(NC(=O)Nc4cnn(CC(F)(F)F)c4)c(Cl)c3)c21 | –
7.6 | Cn1ccc2ncnc(Oc3ccc(NC(=O)Nc4cnn(C(C)(C)C)c4)c(Cl)c3)c21 | –
9.4 | COc1ccc(NC(=O)Nc2ccc(Oc3ncnc4ccn(C)c34)cc2Cl)cc1C(F)(F)F | –
9.3 | CN1CCN(Cc2ccc(NC(=O)Nc3ccc(Oc4ncnc5ccn(C)c45)cc3Cl)cc2C(F)(F)F)CC1 | IC50 (HUVEC [6]): 20 nM; solubility [7]: 19 µg/mL (≈ 33.1 µM); IC50 (HUVEC [8]): 38 nM
